# Assay results published in publication PMC4948780, “PARP Inhibitors in Clinical Use Induce Genomic Instability in Normal Human Cells” (PLoS ONE, 2016).
# How the values were obtained:
# EBV-BL = assay: Chromosomal aberrations on metaphase spreads (Giemsa); assay type: cell-based, human; conditions: 1 μM, 24 hrs, 100 metaphases
# Description: (§1) To prepare metaphase spreads, exponentially growing cells were treated with 0.1–0.3 μg/ml of colcemid for 1–6 hr. Cells were collected and incubated in hypotonic solution (0.56% KCl), fixed in methanol: acetic acid (3:1), spotted to slides and air-dried. To measure chromosomal aberrations, the slides were stained with 2% Giemsa/Sorensen’s buffer. To visualize SCEs, the doubling time for each cell type was determined. Cells were incubated with 10 μM BrdU for two cell cycles. After metaphase spreads were prepared, the slides were treated with 0.5 μg/ml Hoechst 33258. The slides were exposed to black light for 20–60 min, incubated at 60°C for 2 hr, and stained in 4–10% Giemsa/Sorensen’s buffer.
# HMEC-hTERT = assay: as above; assay type: cell-based, human; conditions: 1 μM, 24 hrs
# Description: as §1
# MCF-10A [1] = assay: as above; assay type: cell-based, human; conditions: 1 μM, 24 hrs
# Description: as §1
# MCF-7 = assay: as above; assay type: cell-based, human; conditions: 1 μM, 24 hrs
# Description: as §1
# MDA-MB-468 = assay: as above; assay type: cell-based, human; conditions: 1 μM, 24 hrs
# Description: as §1
# primary T cell 1 = assay: as above; assay type: cell-based, human; conditions: 1 μM, 24 hrs
# Description: as §1
# MCF-10A [2] = assay: Clonogenic survival assay; assay type: cell-based, human
# Description: Clonogenic survival was assessed by colony counting at 9 days. […] Viable cells were scored and enumerated by trypan blue exclusion at 7 days. Means with SD are shown (MCF-10A: n = 3, primary T cell 1: n = 2). […] Fold increases of SCE per chromosome compared with no treatment or 0.5 μM cisplatin are shown for each cell type. Approximately 50 metaphases were counted for each cell. Error bars depict the mean with SD. Asterisks designate statistical significance for unpaired t-test at P < 0.0001. C. […] One hundred metaphases were counted for each exposure. Fold increases of chromatid-type aberrations per chromosome compared with no treatment or 0.5 μM cisplatin are shown for each cell type. The y-axis is the number of total chromatid-type aberrations per chromosome for each metaphase counted. Error bars indicate mean with SEM. The P-values were calculated using unpaired t-test.
# Human mammary epithelial cell lines used included non-tumorigenic diploid MCF-10A, HMEC-hTERT and tumorigenic MDA-MB-468 (basal) and MCF-7 (luminal). […] Blood samples were obtained from normal donor participants. The participants provided written informed consent to IRB protocol #95–054 approved by the Institutional Review Board at MSKCC. The original signed consent is then sent to the research participant’s medical record and a copy of the consent is given to the participant. The EBV-transformed B-lymphocyte cell line (EBV-BL) was generated by transformation of peripheral blood mononuclear cells (PBMC) with the B95.8 strain of EBV, as previously described. Primary T cells were generated from PBMC from two normal donors by non-specific activation with phytohemagglutinin and cultured in RPMI1640 and human serum AB for 4–14 days before use. E14 mES cell line was provided by M. Hooper, Brca1^-/- 236.44 mES cell line was provided by B. H. Koller, Brca2^lex1/lex2 mES cell line was provided by P. Hasty and Lexicon Genetics. E14 wild-type, Brca1^-/- 236.44, and Brca2^lex1/lex2 mES cell lines were cultured in standard ES media. Brca1^-/- 236.44 cells express a BRCA1 peptide deleted for sequences encoded by exon 11 [52], while Brca2^lex1/lex2 cells express a BRCA2 peptide deleted for the terminal exon 27 [53]. Olaparib was synthesized in the MSKCC Organic chemistry core facility. Veliparib and BSI-201 were purchased from Chemie Tek. The compounds were dissolved in DMSO and PBS. For clonogenic survival assays, MCF-10A (1000 cells), HMEC-hTERT (1000 cells), MDA-MB-468 (1500 cells) and mouse ES cell (2000 cells) were seeded, vehicle control or inhibitors were added at the indicated concentration 24 hours after seeding and changed every three days for continuous treatment. At 7–14 days, colonies were fixed with methanol and stained with Giemsa. For EBV-BL (6 × 10^6) and primary T cells (3.6 × 10^6) were continuously exposed to the indicated concentration of drug for 10 days at 0.6 × 10^6 cells/ml. Viable cells were scored by trypan blue exclusion.
# [3] = patients on the olaparib-treated arm, prior cytotoxic chemotherapy; cited from earlier work
# [4] = 100 metaphases, radial and telomere association counted as two
smiles,measurement,setting,value
O=C(c1cc(Cc2n[nH]c(=O)c3ccccc23)ccc1F)N1CCN(C(=O)C2CC2)CC1 [olaparib],chromatid-type radial chromosome,EBV-BL,1
same,chromatid-type telomere association,EBV-BL,0
same,chromosome-type dicentric,EBV-BL,0
same,chromosome-type gap/break,EBV-BL,1
same,total chromatid-type aberrations,EBV-BL; radial and telomere association counted as two,44
same,total chromatid-type aberrations / metaphase (mean ± SEM),HMEC-hTERT,0.30 ± 0.07
same,chromatid-type radial chromosome,HMEC-hTERT; 100 metaphases,0
same,chromatid-type telomere association,HMEC-hTERT; 100 metaphases,0
same,chromosome-type dicentric,HMEC-hTERT; 100 metaphases,0
same,chromosome-type gap/break,HMEC-hTERT; 100 metaphases,4
same,total chromatid-type aberrations,HMEC-hTERT; [4],30
same,total chromatid-type aberrations / metaphase (mean ± SEM),MCF-10A [1],0.22 ± 0.05
same,chromatid-type radial chromosome,MCF-10A [1]; 100 metaphases,0
same,chromatid-type telomere association,MCF-10A [1]; 100 metaphases,1
same,chromosome-type dicentric,MCF-10A [1]; 100 metaphases,0
same,chromosome-type gap/break,MCF-10A [1]; 100 metaphases,3
same,total chromatid-type aberrations,MCF-10A [1]; [4],22
same,total chromatid-type aberrations / metaphase (mean ± SEM),MCF-7,1.39 ± 0.14
same,chromatid-type radial chromosome,MCF-7; 100 metaphases,4
same,chromatid-type telomere association,MCF-7; 100 metaphases,1
same,chromosome-type dicentric,MCF-7; 100 metaphases,4
same,chromosome-type gap/break,MCF-7; 100 metaphases,8
same,total chromatid-type aberrations / metaphase (mean ± SEM),MDA-MB-468,0.67 ± 0.13
same,chromatid-type radial chromosome,MDA-MB-468; 100 metaphases,5
same,chromatid-type telomere association,MDA-MB-468; 100 metaphases,3
same,chromosome-type dicentric,MDA-MB-468; 100 metaphases,4
same,chromosome-type gap/break,MDA-MB-468; 100 metaphases,5
same,total chromatid-type aberrations,MDA-MB-468; [4],67
same,total chromatid-type aberrations / metaphase (mean ± SEM),primary T cell 1,0.44 ± 0.07
same,chromatid-type radial chromosome,primary T cell 1; 100 metaphases,2
same,chromatid-type telomere association,primary T cell 1; 100 metaphases,0
same,chromosome-type dicentric,primary T cell 1; 100 metaphases,3
same,chromosome-type gap/break,primary T cell 1; 100 metaphases,0
same,total chromatid-type aberrations,primary T cell 1; [4],44
same,survival (mean ± SD),MCF-10A [2]; 1 μM,95.7 ± 1.9%
same,IC50,"MCF-10A [2]; Homo sapiens, continuous exposure, clonogenic survival assay, read-out: IC50 (cell survival)",4.7 µM
same,incidence of myelodysplastic syndrome and acute myelogenous leukemia,[3],2.2%
